This is an account of results in patent publication EP4745134A1 (Jiangsu Yahong Meditech Co., Ltd., priority 2023, dated 2025).

One may read the IC50 as the point on the concentration scale where inhibition reaches its midpoint.

The subject of test [1] is HCT116 MTAP KO cells. Briefly: Inhibitory activity against cell proliferation (CellTiter Glo, 6 days), HCT116 MTAP KO. The class given is cell-based. The following applies: for IC50: HCT116 MTAP KO cells, 6 days, CellTiter Glo, read-out: HCT116 MTAP KO IC50; for Selectivity HCT 116-WT/ HCT116 MTAP KO: ratio of IC50 HCT116-WT / HCT116 MTAP KO. In a few lines: (§1)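 Luminescence read-out (CellTiter Glo, 10 min shaking at room temperature) after 6 days of compound exposure; IC50 fitted against DMSO controls. Top dose 10000 nM, 4-fold steps, 8 points; 250 cells/well in McCoy's 5A + 10% FBS.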
On the technique in general: Cellular ATP, detected with luciferase, serves as a proxy for viable cell number.

The test system of test [2] is HCT116-WT cells. Kind of test: Inhibitory activity against cell proliferation (CellTiter Glo, 6 days), HCT116-WT. Format: cell-based. Particulars: HCT116-WT cells, 6 days, CellTiter Glo, read-out: HCT116-WT IC50. In a few lines: as §1
The target in test [3] is PRMT5-MTA (Homo sapiens, UniProt O14744). Briefly: Enzymatic inhibitory activity against PRMT5-MTA (AlphaScreen). Format: biochemical. The following applies: read-out: IC50. Summed up: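 PRMT5/[…] (1 nM) was preincubated for 30 min at room temperature with 1 µM […] and 2.5 µM SAM, then exposed to compound (10-point, 3-fold from 1000 nM) for 15 min at 23 °C. Histone H4 substrate (5 nM) was added and reacted for 45 min at 23 °C. Symmetric dimethyl-R3 H4 was detected by AlphaScreen and IC50 calculated.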
For orientation: Bead proximity is the source of the signal in Alpha formats.

Where two headings read alike, the source gives them in different places.

Sequence of PRMT5-MTA (O14744 whole entry): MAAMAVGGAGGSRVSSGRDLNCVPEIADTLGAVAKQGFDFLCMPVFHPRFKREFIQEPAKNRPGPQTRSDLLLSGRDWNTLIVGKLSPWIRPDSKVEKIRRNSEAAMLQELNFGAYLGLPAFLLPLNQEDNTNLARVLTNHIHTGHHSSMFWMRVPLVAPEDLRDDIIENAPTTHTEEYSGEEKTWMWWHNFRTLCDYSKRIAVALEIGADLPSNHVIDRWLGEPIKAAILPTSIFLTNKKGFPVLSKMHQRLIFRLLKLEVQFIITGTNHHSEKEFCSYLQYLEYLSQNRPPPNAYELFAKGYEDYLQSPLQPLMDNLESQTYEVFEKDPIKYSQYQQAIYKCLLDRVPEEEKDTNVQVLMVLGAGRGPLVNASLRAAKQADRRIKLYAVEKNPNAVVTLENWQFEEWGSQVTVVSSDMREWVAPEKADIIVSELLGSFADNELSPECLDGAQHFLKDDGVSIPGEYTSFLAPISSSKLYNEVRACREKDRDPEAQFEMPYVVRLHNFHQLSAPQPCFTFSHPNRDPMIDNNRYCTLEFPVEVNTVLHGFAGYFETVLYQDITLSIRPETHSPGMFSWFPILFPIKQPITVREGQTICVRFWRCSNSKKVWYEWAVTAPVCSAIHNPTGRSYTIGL
Sequence of PRMT5-MTA (Q9BQA1 whole entry partner): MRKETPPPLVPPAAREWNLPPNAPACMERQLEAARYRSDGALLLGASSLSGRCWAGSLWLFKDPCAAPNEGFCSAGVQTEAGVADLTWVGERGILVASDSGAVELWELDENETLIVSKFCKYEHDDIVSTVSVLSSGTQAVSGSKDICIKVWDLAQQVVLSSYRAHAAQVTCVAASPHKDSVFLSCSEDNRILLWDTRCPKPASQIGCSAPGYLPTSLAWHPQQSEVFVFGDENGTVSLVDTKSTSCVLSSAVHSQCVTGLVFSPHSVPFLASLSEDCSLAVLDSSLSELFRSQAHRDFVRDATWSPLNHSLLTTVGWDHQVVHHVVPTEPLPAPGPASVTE

Take `[2H]C([2H])([2H])c1cc2cc(C(=O)N(Cc3ccc(-c4cnn(C)c4)cn3)N(C)c3ncccn3)ccc2nc1N` [Example 166, 2-amino-N'-methyl-3-(methyl-D3)-N-((5-(1-methyl-1H-pyrazol-4-yl)pyridin-2-yl)methyl)-N'-(pyrimidin-2-yl)quinoline-6-carbohydrazide]: the IC50 came out at 0.068 µM in test [1] (Homo sapiens, HCT-116, 144 h); 1.25 µM in test [2] (144 h); 0.0048 µM in test [3]. Further, in test [1], the “Selectivity HCT 116-WT/ HCT116 MTAP KO” value was found to be 18.32.

Turning to `Cc1cc2nc(N)c3cnn(C)c3c2cc1C(=O)N(C)N1CCc2cccnc21` [Example 112, 4-amino-N-(2,3-dihydro-1H-pyrrolo[2,3-b]pyridin-1-yl)-N,1,7-trimethyl-1H-pyrazolo[4,3-c]quinoline-8-carboxamide], the concentration for half-maximal inhibition (IC50) in test [1] (Homo sapiens, HCT-116, 144 h) is 0.36 µM; in test [2] (144 h), over 10 µM; in test [3], 0.0019 µM.

For `[2H]C([2H])([2H])c1cc2cc(C(=O)N(Cc3ccc(-c4cncs4)cn3)N(C)c3ncccn3)ccc2nc1N` [Example 318, 2-amino-N'-methyl-3-(methyl-D3)-N'-(pyrimidin-2-yl)-N-((5-(thiazol-5-yl)pyridin-2-yl)methyl)quinoline-6-carbohydrazide], the half-maximal inhibitory concentration (IC50) was 0.016 µM in test [1] (Homo sapiens, HCT-116, 144 h); 0.338 µM in test [2] (144 h); 0.0063 µM in test [3]. Moreover, in test [1], the “Selectivity HCT 116-WT/ HCT116 MTAP KO” value came to 21.13.

`Cc1cc2cc(C(=O)N(Cc3ccc(C4=CCCOC4)cn3)N(C)c3ncccn3)ccc2nc1N` [Example 187, 2-amino-N-((5-(5,6-dihydro-2H-pyran-3-yl)pyridin-2-yl)methyl)-N',3-dimethyl-N' -(pyrimidin-2-yl)quinoline-6-carbohydrazide]: the concentration for half-maximal inhibition (IC50) in test [1] (Homo sapiens, HCT-116, 144 h) stood at 0.033 µM; in test [2] (144 h) it was 0.788 µM; in test [3], 0.0023 µM. In addition, the “Selectivity HCT 116-WT/ HCT116 MTAP KO” value in test [1] was 23.88.

Consider `CN(c1ccccc1)N(Cc1ccc(C(F)(F)F)cn1)C(=O)c1ccc2nc(N)c3cnn(C)c3c2c1` [Example 15, 4-amino-N',1-dimethyl-N'-phenyl-N-((5-(trifluoromethyl)pyridin-2-yl)methyl)-1H-pyrazolo[4,3-c]quinoline-8-carbohydrazide], for which the IC50 amounted to 0.026 µM in test [1], 0.475 µM in test [2] and 0.0037 µM in test [3]. In test [1], the “Selectivity HCT 116-WT/ HCT116 MTAP KO” value is on record as 18.27.

Consider `Cc1cc2nc(N)c3cnn(C)c3c2cc1C(=O)N1CC(C)CN1c1ncc(-c2nncs2)cc1F` (centres unmarked) [Example 487, (4-amino-1,7-dimethyl-1H-pyrazolo[4,3-c]quinolin-8-yl)(2-(3-fluoro-5-(1,3,4-thiadiazol-2-yl)pyridin-2-yl)-4-methylpyrazolidin-1-yl)methanone], for which the 50% inhibitory concentration (IC50) in test [1] (Homo sapiens, HCT-116, 144 h) is 0.058 µM; in test [2] (144 h), 2.35 µM; in test [3], 0.0067 µM. Further, the “Selectivity HCT 116-WT/ HCT116 MTAP KO” value in test [1] is on record as 40.52.

As for `CCC1CN(C(=O)c2cc3c(cc2C)nc(N)c2cnn(C)c23)N(c2ncccc2F)C1` (centres unmarked) [Example 415, (4-amino-1,7-dimethyl-1H-pyrazolo[4,3-c]quinolin-8-yl)(4-ethyl-2-(3-fluoropyridin-2-yl)pyrazolidin-1-yl)methanone], the half-inhibitory concentration (IC50) came out at 0.019 µM in test [1] (Homo sapiens, HCT-116, 144 h); 0.81 µM in test [2] (144 h); 0.0026 µM in test [3]. In addition, the “Selectivity HCT 116-WT/ HCT116 MTAP KO” value in test [1] was 42.63.

As to `Cc1cc2cc(C(=O)N(Cc3ccc(-c4cnn(C(C)C)c4)cn3)N(C)c3ncccn3)ccc2nc1N` [Example 203, 2-amino-N-((5-(1-isopropyl-1H-pyrazol-4-yl)pyridin-2-yl)methyl)-N',3-dimethyl-N'-(pyrimidin-2-yl)quinoline-6-carbohydrazide], the IC50 is 0.04 µM in test [1] (Homo sapiens, HCT-116, 144 h); 1.03 µM in test [2] (144 h); 0.0018 µM in test [3]. Further, the “Selectivity HCT 116-WT/ HCT116 MTAP KO” value in test [1] came to 25.65.

Take `Cc1cc2nc(N)c3cnn(C)c3c2cc1C(=O)N1CC(C)CN1c1cc(F)ccn1` (centres unmarked) [Example 372, (4-amino-1,7-dimethyl-1H-pyrazolo[4,3-c]quinolin-8-yl)(2-(4-fluoropyridin-2-yl)-4-methylpyrazolidin-1-yl)methanone]: the IC50 in test [1] (Homo sapiens, HCT-116, 144 h) was 0.083 µM; in test [2] (144 h) it was 2.52 µM; in test [3], 0.0034 µM. Also, in test [1], the “Selectivity HCT 116-WT/ HCT116 MTAP KO” value amounted to 30.42.

With `Cc1cc2cc(C(=O)N(Cc3ccc(N4CCC(F)(F)C4)cn3)N(C)c3ncccn3)ccc2nc1N` [Example 224, 2-amino-N-((5-(3,3-difluoropyrrolidin-1-yl)pyridin-2-yl)methyl)-N',3-dimethyl-N'-(pyrimidin-2-yl)quinoline-6-carbohydrazide], the half-inhibitory concentration (IC50) in test [1] (Homo sapiens, HCT-116, 144 h) is 0.47 µM; in test [2] (144 h), over 10 µM; in test [3], 0.016 µM.

Turning to `COc1ccc(-c2ccc(CN(C(=O)c3ccc4nc(N)c(C)cc4c3)N(C)c3ncccn3)nc2)cn1` [Example 174, 2-amino-N-((6'-methoxy-[3,3'-bipyridine] -6-yl)methyl)-N',3-dimethyl-N'-(pyrimidin-2-yl)quinoline-6-carbohydrazide], the concentration for half-maximal inhibition (IC50) came to 0.041 µM in test [1] (Homo sapiens, HCT-116, 144 h); 1.07 µM in test [2] (144 h); 0.0023 µM in test [3]. For the same molecule, the “Selectivity HCT 116-WT/ HCT116 MTAP KO” value in test [1] came to 26.22.

Consider `C=C1CN(C(=O)c2cc3c(cc2Cl)nc(N)c2cnn(C)c23)N(c2ncc(Br)cc2F)C1` [Example 430, (4-amino-7-chloro-1-methyl-1H-pyrazolo [4,3-c]quinolin-8-yl)(2-(5-bromo-3-fluor opyridin-2-yl)-4-methylenepyrazolidin-1-yl)methanone], for which the half-inhibitory concentration (IC50) in test [1] (Homo sapiens, HCT-116, 144 h) turned out to be 0.022 µM; in test [2] (144 h) it was 0.585 µM; in test [3] it was 0.0055 µM. Further, the “Selectivity HCT 116-WT/ HCT116 MTAP KO” value in test [1] worked out at 26.59.

Take `Cc1cc2nc(N)c3cnn(C)c3c2cc1C(=O)N1CC2(CC2)CN1c1ncccc1F` [Example 366, (4-amino-1,7-dimethyl-1H-pyrazolo[4,3-c]quinolin-8-yl)(6-(3-fluoropyridin-2-yl)-5,6-diazaspiro[2.4]heptan-5-yl)methanone]: the half-maximal inhibitory concentration (IC50) in test [1] (Homo sapiens, HCT-116, 144 h) is 0.0077 µM; in test [2] (144 h) it was 0.319 µM; in test [3] it was 0.0079 µM. Besides, the “Selectivity HCT 116-WT/ HCT116 MTAP KO” value in test [1] is 41.43.

Turning to `[2H]C([2H])([2H])N(c1ncccn1)N(Cc1ccc(Br)cn1)C(=O)c1ccc2nc(N)c(C)cc2c1` [Example 64, 2-amino-N-((5-bromopyridin-2-yl)methyl)-3-methyl-N'-(methyl-d3)-N'-(pyrimidin-2-yl)quinoline-6-carbohydrazide], the concentration for half-maximal inhibition (IC50) in test [1] (Homo sapiens, HCT-116, 144 h) was determined as 0.038 µM; in test [2] (144 h), 0.918 µM; in test [3], 0.0017 µM. In test [1], the “Selectivity HCT 116-WT/ HCT116 MTAP KO” value was 24.16.

In the case of `Cc1cc2cc(C(=O)N(Cc3ccc(-c4cc[nH]c4)cn3)N(C)c3ncccn3)ccc2nc1N` [Example 191, N-((5-(1H-pyrrol-3-yl)pyridin-2-yl)methyl)-2-amino-N',3-dimethyl-N'-(pyrimidin-2-yl)quinoline-6-carbohydrazide], the IC50 in test [1] (Homo sapiens, HCT-116, 144 h) worked out at 0.112 µM; in test [2] (144 h), 2.34 µM; in test [3], 0.0025 µM. Moreover, the “Selectivity HCT 116-WT/ HCT116 MTAP KO” value in test [1] is 20.90.

For the molecule `Cc1cc2cc(C(=O)N(Cc3ccc(C(F)(F)F)cn3)N(c3nccc4nccnc34)C3CC3)ccc2nc1N` [Example 65, 2-amino-N'-cyclopropyl-3-methyl-N'-(pyrido[3,4-b]pyrazin-5-yl)-N-((5-(trifluoromethyl)pyridin-2-yl)methyl)quinoline-6-carbohydrazide], the IC50 in test [1] (Homo sapiens, HCT-116, 144 h) was determined as 0.048 µM; in test [2] (144 h), 2.15 µM; in test [3], 0.004 µM. Further, the “Selectivity HCT 116-WT/ HCT116 MTAP KO” value in test [1] is 44.77.
